“And” between values parts separate entries of the source, which are not always exact repeats. Equal values may be shown once.
Experiments:
[1] = Inhibition of [14C]-arachidonoylethanolamide uptake in rat RBL-2H3 cells assessed as increase in AEA level incubated for 5 mins by scintillation counting; type: functional, cell-based; settings: RBL-2H3, 5 min
Cannabinoid receptor 1 [2] = target: T1, Cannabinoid receptor 1 (Rattus norvegicus, UniProt P20272); assay: Displacement of [3H]HU-243 from Sabra rat brain synaptosome CB1 receptor assessed as inhibition constant incubated for 90 mins; type: subcellular
T1 sequence (P20272 whole entry): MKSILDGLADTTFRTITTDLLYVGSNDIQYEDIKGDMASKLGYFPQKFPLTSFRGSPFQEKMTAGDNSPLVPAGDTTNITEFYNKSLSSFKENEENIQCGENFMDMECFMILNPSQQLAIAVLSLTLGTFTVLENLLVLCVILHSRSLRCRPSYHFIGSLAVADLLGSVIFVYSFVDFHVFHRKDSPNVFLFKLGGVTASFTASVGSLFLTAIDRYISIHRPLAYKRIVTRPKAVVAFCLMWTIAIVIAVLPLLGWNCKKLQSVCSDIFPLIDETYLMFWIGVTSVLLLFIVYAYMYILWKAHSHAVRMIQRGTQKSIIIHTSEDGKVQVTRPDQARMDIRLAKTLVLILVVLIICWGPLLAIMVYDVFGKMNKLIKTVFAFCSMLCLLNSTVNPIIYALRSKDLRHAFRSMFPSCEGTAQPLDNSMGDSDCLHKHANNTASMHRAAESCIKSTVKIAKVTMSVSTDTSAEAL

Cannabinoid receptor 2 [3] = target: T2, Cannabinoid receptor 2 (Homo sapiens, UniProt P34972); assay: Displacement of [3H]HU-243 from CB2 receptor (unknown origin) extracted from green monkey COS-7 cell membrane assessed as inhibition constant incubated for 90 mins; type: cell membranes
T2 sequence (P34972 whole entry): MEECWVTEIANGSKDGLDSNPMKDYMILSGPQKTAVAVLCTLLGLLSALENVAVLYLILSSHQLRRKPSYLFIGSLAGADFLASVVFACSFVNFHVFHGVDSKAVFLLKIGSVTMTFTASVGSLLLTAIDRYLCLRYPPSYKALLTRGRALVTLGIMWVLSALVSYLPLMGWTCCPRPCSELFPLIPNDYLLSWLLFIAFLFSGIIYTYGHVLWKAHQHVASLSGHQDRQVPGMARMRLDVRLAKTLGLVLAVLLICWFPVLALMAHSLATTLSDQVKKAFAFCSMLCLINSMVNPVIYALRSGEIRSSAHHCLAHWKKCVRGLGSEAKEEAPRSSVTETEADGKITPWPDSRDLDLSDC

Cannabinoid receptor 1 [4] = target: T3, Cannabinoid receptor 1 (Homo sapiens, UniProt P21554); assay: Binding affinity to CB1 receptor (unknown origin) assessed as inhibition constant
T3 sequence (P21554 whole entry): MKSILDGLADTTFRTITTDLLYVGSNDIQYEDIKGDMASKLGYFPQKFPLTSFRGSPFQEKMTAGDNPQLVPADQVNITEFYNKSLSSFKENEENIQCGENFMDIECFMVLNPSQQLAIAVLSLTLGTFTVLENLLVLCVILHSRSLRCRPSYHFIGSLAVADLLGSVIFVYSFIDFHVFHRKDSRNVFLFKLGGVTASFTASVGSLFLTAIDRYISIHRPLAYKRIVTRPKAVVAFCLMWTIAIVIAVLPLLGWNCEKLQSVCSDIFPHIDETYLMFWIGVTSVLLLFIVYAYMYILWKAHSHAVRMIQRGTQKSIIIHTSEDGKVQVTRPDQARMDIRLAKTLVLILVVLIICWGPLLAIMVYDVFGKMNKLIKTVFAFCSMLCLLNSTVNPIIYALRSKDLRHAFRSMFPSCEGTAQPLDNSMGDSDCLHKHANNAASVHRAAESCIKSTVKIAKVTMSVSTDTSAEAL

Cannabinoid receptor 2 [5] = target: T2, Cannabinoid receptor 2; assay: Binding affinity to CB2 receptor (unknown origin) assessed as inhibition constant
Cannabinoid receptor 1 [6] = target: T3, Cannabinoid receptor 1; assay: Displacement of [3H]CP-55,940 from human CB1 receptor extracted from HEK293 cell membrane assessed as inhibition constant incubated for 90 mins by liquid scintillation spectrophotometric analysis; type: cell membranes
[7] = Selectivity ratio of Ki for CB1 receptor (unknown origin) to Ki for CB2 receptor (unknown origin)
[8] = target: Transient receptor potential cation channel subfamily V member 1 (Homo sapiens, UniProt Q8NER1); assay: Agonist activity at human TRPV1 receptor expressed in HEK293 cells assessed as effect on [Ca2+]i preincubated with capsazepine for 30 mins followed by compound addition by Fluo-3 probe based fluorescence analysis; type: cell-based
Sequence of Transient receptor potential cation channel subfamily V member 1 (Q8NER1 whole entry): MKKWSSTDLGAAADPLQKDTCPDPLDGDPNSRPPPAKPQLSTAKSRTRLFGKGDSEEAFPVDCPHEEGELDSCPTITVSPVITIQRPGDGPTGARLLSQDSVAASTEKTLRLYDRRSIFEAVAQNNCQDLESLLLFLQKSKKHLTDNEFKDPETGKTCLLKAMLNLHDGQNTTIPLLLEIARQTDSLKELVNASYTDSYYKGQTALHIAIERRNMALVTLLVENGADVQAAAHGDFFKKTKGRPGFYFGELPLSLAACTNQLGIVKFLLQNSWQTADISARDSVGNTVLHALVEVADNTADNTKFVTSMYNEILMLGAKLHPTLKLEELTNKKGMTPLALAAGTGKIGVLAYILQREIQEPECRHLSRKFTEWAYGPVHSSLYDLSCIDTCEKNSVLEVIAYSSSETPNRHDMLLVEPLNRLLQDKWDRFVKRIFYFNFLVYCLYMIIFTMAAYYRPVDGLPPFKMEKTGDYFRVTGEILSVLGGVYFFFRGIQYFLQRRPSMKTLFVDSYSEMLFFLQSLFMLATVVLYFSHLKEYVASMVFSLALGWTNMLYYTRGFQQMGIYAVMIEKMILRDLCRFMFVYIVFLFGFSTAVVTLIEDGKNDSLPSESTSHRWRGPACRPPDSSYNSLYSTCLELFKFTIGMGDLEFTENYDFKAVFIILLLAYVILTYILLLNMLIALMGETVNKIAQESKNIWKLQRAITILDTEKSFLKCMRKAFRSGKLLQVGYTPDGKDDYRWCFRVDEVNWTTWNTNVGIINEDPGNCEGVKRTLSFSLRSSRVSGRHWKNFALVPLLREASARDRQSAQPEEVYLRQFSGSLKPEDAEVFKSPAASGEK

[9] = target: T4, Fatty-acid amide hydrolase 1 (Mus musculus, UniProt O08914); assay: Inhibition of FAAH-mediated [14C]-AEA hydrolysis in mouse N18TG2 cell membrane incubated for 30 mins by scintillation counting; type: cell membranes
T4 sequence (O08914 whole entry): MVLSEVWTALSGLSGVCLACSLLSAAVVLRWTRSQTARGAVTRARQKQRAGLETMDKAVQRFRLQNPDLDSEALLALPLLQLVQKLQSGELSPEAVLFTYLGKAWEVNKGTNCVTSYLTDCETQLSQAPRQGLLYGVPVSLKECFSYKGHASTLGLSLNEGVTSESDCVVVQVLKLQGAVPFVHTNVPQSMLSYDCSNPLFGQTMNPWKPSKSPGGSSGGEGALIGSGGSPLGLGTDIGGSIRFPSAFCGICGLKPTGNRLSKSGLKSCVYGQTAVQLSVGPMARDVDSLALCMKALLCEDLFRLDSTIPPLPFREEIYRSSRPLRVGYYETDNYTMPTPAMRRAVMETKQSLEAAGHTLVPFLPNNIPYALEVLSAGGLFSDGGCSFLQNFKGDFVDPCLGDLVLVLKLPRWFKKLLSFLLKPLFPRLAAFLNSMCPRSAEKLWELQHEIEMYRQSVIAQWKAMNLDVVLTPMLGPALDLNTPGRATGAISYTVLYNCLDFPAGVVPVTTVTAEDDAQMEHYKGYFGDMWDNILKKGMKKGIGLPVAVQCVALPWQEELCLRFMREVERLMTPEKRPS

Cannabinoid receptor 1 [10] = target: T3, Cannabinoid receptor 1; assay: Antagonist activity at human CB1 receptor expressed in HEK293T cells co-transfected with pCRE-Luc plasmid preincubated with compound for 30 mins followed by WIN55,212 addition and measured after 6 hrs by Dual-luciferase assay; type: functional, cell-based
Cannabinoid receptor 2 [11] = target: T2, Cannabinoid receptor 2; assay: Agonist activity at human CB2 receptor expressed in HEK293T cells co-transfected with pCRE-Luc plasmid preincubated with compound for 30 mins followed by forskolin addition and measured after 6 hrs by Dual-luciferase assay; type: functional, cell-based
Cannabinoid receptor 2 [12] = target: T2, Cannabinoid receptor 2; assay: Displacement of [3H]CP-55,940 from human CB2 receptor extracted from HEK293 cell membrane assessed as inhibition constant incubated for 90 mins by liquid scintillation spectrophotometric analysis; type: cell membranes
Cannabinoid receptor 1 [13] = target: T1, Cannabinoid receptor 1; assay: Displacement of [3H]CP-55,940 from Sabra rat brain synaptosome CB1 receptor assessed as inhibition constant incubated for 90 mins; type: subcellular
Cannabinoid receptor 2 [14] = target: T2, Cannabinoid receptor 2; assay: Displacement of [3H]CP-55,940 from human CB2 receptor extracted from CHO cell membrane assessed as inhibition constant incubated for 90 mins; type: cell membranes
[15] = Selectivity index, ratio of Ki for Sabra rat brain synaptosome CB1 receptor to Ki for human CB2 receptor extracted from CHO cell membrane

C=C(C)[C@@H]1CCC(C)=C[C@H]1c1c(O)cc(C(C)(C)CCCCCC)cc1O
IC50 [1]: 14000 nM
Ki (Cannabinoid receptor 1 [2]): > 10000 nM
Ki (Cannabinoid receptor 2 [3]): 1800 nM

C=C(C)[C@@H]1CCC(C(=O)O)=C[C@H]1c1c(O)cc(C(C)(C)CCCCCC)cc1O
Ki (Cannabinoid receptor 1 [4]): > 1000 nM
Ki (Cannabinoid receptor 2 [5]): > 1000 nM

C=C(C)[C@H]1CCC(C)=C[C@@H]1c1c(O)cc(CCCCC)c(C(=O)OCCO)c1O
Ki (Cannabinoid receptor 1 [6]): 259 nM

CCCCCCC(C)(C)c1cc(O)c(-c2c(CO)cccc2C(C)C)c(OC)c1
Ki (Cannabinoid receptor 1 [4]): > 1000 nM
Ki (Cannabinoid receptor 2 [5]): 0.64 nM and 0.28 nM
Ratio Ki [7]: 17

C=C(C)[C@H]1CCC(C)=C[C@@H]1c1c(O)cc(CCCCC)cc1O
EC50 [8]: 3200 nM
IC50 [1]: 17000 nM
IC50 [9]: 63500 nM

C=C(C)[C@H]1CCC(C)=C[C@@H]1c1c(O)cc(CCCCC)c(C(=O)OCC(O)CCC)c1O (stereo partly drawn)
IC50 (Cannabinoid receptor 1 [10]): 210 nM
EC50 (Cannabinoid receptor 2 [11]): 90 nM

C=C(C)C1CCC(C)=CC1O (stereo not drawn)
Ki (Cannabinoid receptor 2 [12]): 375 nM
Ki (Cannabinoid receptor 1 [6]): > 1000 nM

CCCCCc1cc(O)c([C@@H]2C=C(CO)CC[C@H]2C(C)C)c(O)c1
Ki (Cannabinoid receptor 1 [13]): > 1000 nM
Ki (Cannabinoid receptor 2 [14]): > 1000 nM

CCCCCc1cc(O)c([C@H]2C=C(CO)CC[C@@H]2C(C)C)c(O)c1
Ki (Cannabinoid receptor 1 [13]): 76.7 nM
Ratio Ki [15]: 6.3
Ki (Cannabinoid receptor 2 [14]): 12.1 nM

C=C(C)[C@H]1CCC(C(=O)O)=C[C@@H]1c1c(O)cc(C(C)(C)CCCCCC)cc1O
Ki (Cannabinoid receptor 1 [4]): 5.8 nM
Ki (Cannabinoid receptor 2 [5]): 155 nM
Ratio Ki [7]: 0.03

C=C(C)[C@@H]1CCC(C(=O)O)=C[C@H]1c1c(O)cc(CCCCC)cc1O
Ki (Cannabinoid receptor 1 [2]): > 1000 nM
Ki (Cannabinoid receptor 2 [3]): > 1000 nM

COc1cc(C(C)(C)CCCCCCN=C=S)cc(OC)c1[C@H]1C=C(CO)[C@H]2C[C@@H]1C2(C)C
Ki (Cannabinoid receptor 1 [4]): 2670 nM
Ki (Cannabinoid receptor 2 [5]): 13.1 nM
Ratio Ki [7]: 203

C=C(C)[C@@H]1CCC(CO)=C[C@H]1c1c(O)cc(CCCCC)cc1O
Ki (Cannabinoid receptor 1 [2]): > 1000 nM
Ki (Cannabinoid receptor 2 [3]): > 1000 nM

C=C(C)[C@@H]1CCC(C)=C[C@H]1c1c(OC)cc(C(C)(C)CCCCCC)cc1OC
Ki (Cannabinoid receptor 1 [2]): > 1000 nM
Ki (Cannabinoid receptor 2 [3]): > 1000 nM

From ChEMBL document CHEMBL6078669, “Stereoisomers of cannabidiols and their pharmacological activities - A potentially novel direction for cannabinoids” (Bioorg Med Chem, 2025)
